# Test results from patent US20240325544A1, “CATIONIC LIPID FOR COVALENT MODIFICATION OF PEPTIDES” (PharmalN Corporation, priority 2023, published 2024).
# Bridge positions count the residues as written; N and C are the ends. Square brackets hold non-standard residues; d marks the D form. Peptide text beside a SMILES is read from it. * marks the point of attachment. Palmitoyl = CCCCCCCCCCCCCCCC(=O)*; Dap = NC[C@H](N)C(=O)O; AEEA = NCCOCCOCC(=O)O
# Key:
# human NPRC = target: T1, human NPRC (Homo sapiens, UniProt P17342); assay: Fluorescence polarization (FP) assay with CNP-F* probe, NPRC; format: binding; settings: 150 nM test article, 5 nM CNP-F*, 50 nM human NPRC
# T1 construct: NPRC Q1-S434, (GenBank Accn. #NP_001191304.1); made in house; host or cells: Expi293 cells
# T1 sequence (P17342 43-476 limits assumed): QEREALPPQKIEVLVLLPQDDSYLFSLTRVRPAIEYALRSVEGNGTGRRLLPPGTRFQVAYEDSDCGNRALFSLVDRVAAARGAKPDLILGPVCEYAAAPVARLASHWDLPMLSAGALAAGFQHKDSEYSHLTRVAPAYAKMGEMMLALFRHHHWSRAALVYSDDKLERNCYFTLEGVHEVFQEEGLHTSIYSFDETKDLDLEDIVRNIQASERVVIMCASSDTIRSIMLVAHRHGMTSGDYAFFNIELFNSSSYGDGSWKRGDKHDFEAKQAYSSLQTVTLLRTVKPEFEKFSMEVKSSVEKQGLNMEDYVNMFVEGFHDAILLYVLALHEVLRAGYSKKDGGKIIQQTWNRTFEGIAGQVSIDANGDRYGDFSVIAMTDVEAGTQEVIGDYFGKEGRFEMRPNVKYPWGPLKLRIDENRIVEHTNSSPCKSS
# Protocol: Error bars represent standard error of the mean. […] NO.
# In the presence of [SEQ ID.
# The CNP-F* probe was incubated at a final concentration of 5 nM in the presence of 50 nM human NPRB or NPRC in an assay buffer containing PBS, pH 7.4 and 0.01% Triton X-100. A […] volume of CNP-F* probe and NPR were dispensed into a black 96-well Costar flat-bottom polystyrene plate prior to FP measurement. Next, […] volume of SEQ ID. No. 31 (final concentration 150 nM) was added to the premixed probe and NPR. The plate was incubated at room temperature for 10 min. Fluorescence polarization was then measured on Flexstation 3 (excitation wavelength: 480 nm; emission wavelength: 525 nm and cutoff at 515 nm).
# CNP-F* was prepared using solid phase peptide synthesis. […] Next, the crude linear peptide was cleavage with 95% TFA in the presence of carbocation scavengers and ether precipitation.
# [1] = system: E0771 breast cancer cells; assay: Orthotopic E0771 breast cancer model, monotherapy or with anti-PD1 Ab (FIG. 9); format: in vivo, mice
# Protocol: FIG. 9. […] Error bars represent standard error of the mean. Tumor growth kinetics of 6-week-old female C57BL/6J mice (n=7-8 per group) that were orthotopically inoculated with E0771 breast cancer cells (250,000 cells/mouse) in the mammary gland. Starting from Day 4 post-inoculation, anti-PD1 Ab (aPD1) was administered intraperitoneally at 5 mg/kg twice a week for 2 cycles; SEQ ID NO: 31 was administered subcutaneously at a bolus dose of 0.3 mg/kg once daily for 5 days (5 days on, 2 days off) for 3 cycles; or a combination of aPD1 (5 mg/kg IP twice a week; 2 cycles) and SEQ ID NO: 31 (0.3 mg/kg SC once a day for 5 days on and 2 days off; 3 cycles); SEQ ID NO: 31 dose days indicated by dotted line or gridlines. The control group, which received only buffer, was dosed in the same manner as SEQ ID NO: 31 to establish the baseline tumor growth kinetics. […] Statistical analysis was based on Dunnett's test performed by using GraphPad (n=8, 7, 8, and 7; Control, aPD1, SEQ ID NO: 31, Combo (aPD1 and SEQ ID NO: 31) * P<0.05, **** P<0.0001 vs Control group.
# Animal care and treatment: Female C57BL/6J mice (6 weeks-old) were purchased from Kyudo (Saga, Japan) and maintained under a 12-hour light/12-hour dark cycle with free access to water and standard mouse diet (CRF diet; Oriental Yeast Co., Ltd, Tokyo Japan). […] Tumor sizes were measured using calipers.
smiles,measurement,setting,value
CCCCCCCCCCCCCCCC(=O)NCCOCCOCC(=O)NCCOCCOCC(=O)NCCOCCOCC(=O)N[C@@H](CN)C(=O)N[C@@H](CN)C(=O)NCC(=O)N[C@@H](CC(C)C)C(=O)N[C@@H](CO)C(=O)N[C@@H](CCCCN)C(=O)NCC(=O)N[C@H]1CSSC[C@@H](C(=O)O)NC(=O)CNC(=O)[C@H](CC(C)C)NC(=O)CNC(=O)[C@H](CO)NC(=O)[C@H](CCC(N)=O)NC(=O)[C@H](CO)NC(=O)CNC(=O)[C@H]([C@@H](C)CC)NC(=O)[C@H](CCCNC(=N)N)NC(=O)[C@H](CC(=O)O)NC(=O)[C@H](CC(C)C)NC(=O)[C@H](CCCCN)NC(=O)[C@H](CC(C)C)NC(=O)CNC(=O)[C@H](Cc2ccccc2)NC1=O [SEQ ID NO: 31] ({Palmitoyl-AEEA-AEEA-AEEA}-[Dap][Dap]GLSKGCFGLKLDRIGSQSGLGC-OH; disulfide 8-24; C-terminus assumed),Binding to NPRC (FP signal of CNP-F* probe),human NPRC,low FP signal demonstrates binding
same,Tumor volume compared to Control group and aPD1 group,"[1]; combination with aPD1 5 mg/kg IP twice a week, 2 cycles",significant decrease in tumor volume
same,Tumor volume compared to Control group and aPD1 group,"[1]; monotherapy, 0.3 mg/kg SC, 5 days on, 2 days off, 3 cycles",significant decrease in tumor volume
